Reference: patent US7345091B2, “Carotenoid ether analogs or derivatives for the inhibition and amelioration of disease” (Cardax Pharmaceuticals, Inc., priority 2002, dated 2008)
Counter-ions that a name gives are not always drawn. Like-named read-outs stand apart in the source and are kept apart here.

System: superoxide anion
Test: Superoxide anion scavenging by EPR (DEPMPO spin trap) in phorbol ester-stimulated isolated neutrophils
Format: cell-based, human
Details: for potency relative to the SOD mimetic positive control: adjusted for percent inhibition and tested dose
Description: In an experiment, neutrophils were isolated on a Percoll gradient from whole blood from a human volunteer. The isolated neutrophils were then re-suspended in phosphate-buffered saline, and maximally stimulated with phorbol ester to induce the respiratory burst and production of superoxide anion. To the solution of activated human neutrophils, the disodium salt disuccinate astaxanthin derivative XVI was added at various concentrations, and the superoxide signal [as measured with electron paramagnetic resonance (EPR) spectroscopy] was subsequently measured. […] The disodium salt disuccinate astaxanthin derivative XVI tested at 100 μM scavenged 28% of the total signal. At 3 mM, almost no superoxide signal remained. […] In addition to reducing the superoxide anion signal important in ischemia-reperfusion injury, it is also likely that myocardial salvage can be achieved with the described carotenoid derivative, as superoxide anion plays a major role in tissue injury and death during prolonged myocardial ischemia. In a third experiment, neutrophils were again isolated on a Percoll gradient from whole blood from a second human volunteer. The isolated neutrophils were then re-suspended in phosphate-buffered saline, and maximally stimulated with phorbol ester to induce the respiratory burst and production of superoxide anion. […] Astaxanthin 2E was dissolved in HPLC grade dimethylsulfoxide (DMSO; Sigma-Aldrich, St. Louis, Mo.). The disodium disuccinate derivatives XVI of astaxanthin 2E were tested separately in […] formulations: statistical mixture of stereoisomers (as for astaxanthin, above, a 1:2:1 mixture of all-E; labeled as “mixture” in all tables and figures); 3S,3'S, and 3R,3'R (optical isomers or enantiomers); and meso (mixture of identical 3S,3'R and 3'S,3R; diastereomers of the enantiomeric pair). […] The disuccinate derivatives were first tested at the appropriate final concentrations in pure aqueous solution (deionized water) from stock solutions of 10 mM. Each of the four disuccinate derivatives were then tested from stock solutions prepared in a 1:2 mixture of ethanol (final concentration of EtOH in stock solution 331⁄3%; final concentration in isolated neutrophil assay 0.3%; HPLC grade ethanol, Sigma-Aldrich, St. Louis, Mo.) at 10 mM. […] Metaphore® Pharmaceuticals, Inc., St. Louis, Mo.) were also performed. Human polymorphonuclear leukocytes (PMNs) were isolated from freshly sampled venous blood of a single volunteer by Percoll density gradient centrifugation, which yielded PMNs with a purity of >95%. Each 10 mL of whole blood was mixed with 0.8 mL of 0.1 M EDTA and 25 mL of saline. The diluted blood was layered over 9 mL of Percoll at a specific density of 1.080 g/mL. After centrifugation at 400×g for 20 min at 20° C., the plasma, mononuclear cell, and Percoll layers were removed. Erythrocytes were lysed by addition of 18 mL of ice-cold water for 30 s, followed by 2 mL of 10× PIPES buffer (25 mM PIPES, 110 mM NaCl, and 5 mM KCl, titrated to pH 7.4 with NaOH). Cells were pelleted at 4° C., the supernatant was decanted, and the procedure was repeated. After the second hypotonic lysis, cells were washed twice with PAG buffer (PIPES buffer containing 0.003% human serum albumin and 0.1% glucose). Afterward, PMNs were counted by light microscopy on a hemocytometer. The final pellet was then suspended in PAG-CM buffer (PAG buffer with 1 mM CaCl2 and 1 mM MgCl2). All EPR measurements were performed using a Bruker ER 300 EPR spectrometer operating at X-band with a TM110 cavity. The microwave frequency was measured with a Model 575 microwave counter (EIP Microwave, Inc., San Jose, Calif.). To measure O^ -2 generation from phorbol-ester (PMA)-stimulated PMNs, EPR spin-trapping studies were performed using DEPMPO (Oxis, Portland, Oreg.) at 10 mM. 1×10^6 PMNs were stimulated with PMA (1 ng/mL) and loaded into capillary tubes for EPR measurements. […]

CC1=C(/C=C/C(C)=C/C=C/C(C)=C/C=C/C=C(C)/C=C/C=C(C)/C=C/C2=C(C)C(=O)C(OC(=O)CCC(=O)O)CC2(C)C)C(C)(C)CC(OC(=O)CCC(=O)O)C1=O (racemic) [XVI, Disodium Salt of the Disuccinic Acid Ester of Astaxanthin]
total superoxide signal scavenged (100 μM, first experiment (FIG. 2)): 28%
suppression of superoxide anion signal (3 mM, first experiment (FIG. 2)): near complete suppression of the superoxide anion signal
inhibition at 100 µM (Homo sapiens, Neutrophil, Solvent EtOH (1:2 EtOH/water stock, 0.3% final), 0.1 mM, read-out: Mean (% inhibition) of superoxide anion signal): ~40%
inhibition at 500 µM (Homo sapiens, Neutrophil, Solvent EtOH, 0.5 mM, read-out: Mean (% inhibition) of superoxide anion signal): 60.1%
inhibition at 1000 µM (Homo sapiens, Neutrophil, Solvent EtOH, 1.0 mM, read-out: Mean (% inhibition) of superoxide anion signal): 78%
inhibition at 3000 µM (Homo sapiens, Neutrophil, Solvent EtOH, 3.0 mM, read-out: Mean (% inhibition) of superoxide anion signal): 95%
inhibition at 100 µM (Homo sapiens, Neutrophil, Solvent Water, 0.1 mM, read-out: Mean (% inhibition) of superoxide anion signal): 19.3%
Mean (% inhibition) of superoxide anion signal (Solvent EtOH (1:2 EtOH/water stock, 0.3% final), 0.1 mM, listed as Mixture): 38.0%
potency relative to the SOD mimetic positive control: one to two orders of magnitude less potent
potency relative to the SOD mimetic positive control (listed as disodium disuccinate derivative): between one and two orders of magnitude less potent
